Data set [1] has as its system mouse embryonic fibroblast (MEF) cells. Description: Par-4 secretion from normal mouse fibroblasts (Western blot of conditioned medium). The data set is classed as cell-based. The conditions noted are these: for level of Par-4 secretion, structure-activity comparison among analogs: normal mouse fibroblasts, conditions not toxic to the cells. As to the method:
In another aspect, the subject technology provides assays for screening test compounds that interfere with vimentin binding to PAR-4 or which cause release of vimentin-bound PAR-4. In a typical assay, cells, such as HEL cells, are seeded onto an appropriate support, such as 60-mm plates containing supplemented growth medium (e.g., supplemented with 0.1% serum) at a desired confluency, such as 40-70% confluency, and treated with the test compound (e.g., 500 nM) or control vehicle. The cells are allowed to grow for a period of time, such as 24 hours, after which the conditioned medium (CM) is concentrated (e.g., concentrated 30× to 100 μl using Millipore tubes (Amicon Ultra centrifugal filters, Ultracel-10K) by 15 min centrifugation at 4500 rpm). The concentrated CM is then subjected to co-immunoprecipitation using detectably labeled PAR-4 and vimentin antibodies in the presence of various concentrations of purified PAR-4 and the precipitated proteins are resolved by SDS-PAGE and analyzed by Western blot analysis. The amount of immunoprecipitated PAR-4-vimentin complex is compared to that of control samples. For example, chemiluminescent signals may be quantified in the BIO-RAD Molecular Imager ChemiDoc XRS+Imaging system using Quantity One software. Induction of Par-4 secretion by the test drug (e.g., 500 nM), as judged by this Western blot analysis procedure, will indicate dissociation of Par-4 from vimentin. […] For such experiments, cells may be treated with the test drug (e.g., 500 nM) or vehicle for an appropriate period of time, such as 24 hours, and then cell lysates are prepared and subjected to immunoprecipitation using an appropriate amount of a Par-4 antibody, vimentin antibody or control IgG antibody by using any standard immunoprecipitation procedure. Following […], the complexes are resolved, preferably by Western blot analysis as described above. If the drug inhibits the binding of Par-4 to vimentin, it will be reflected in the lack of co-immunoprecipitation of Par-4 with the vimentin antibody, and co-immunoprecipitation of vimentin with the Par-4 antibody.
Co-Immunoprecipitation and Western blot analysis: Protein extracted from cell lysates was filtered, pre-cleared with 25 μL (bed volume) of protein G-Sepharose beads and immunoprecipitated with 1 μg of respective antibodies. The eluted proteins were resolved by SDS-PAGE, and subjected to Western blot analysis as described.
To identify Par-4 secretagogues, we synthesized and screened 3-arylquinolines as well as related quinolones and quinothiolones for the secretion of Par-4 protein from normal fibroblasts under conditions that are not toxic to the cells.
We screened representative members of each of these heterocyclic families on a compound-by-compound basis for the secretion of Par-4 protein from normal mouse fibroblasts under conditions that were not toxic to the cells. Initial expectations were that these heterocycles would serve as Nutlin-3a surrogates and inhibit MDM2, but studies reported herein established a completely different mechanism of action, reflecting that the structural dissimilarities between these heterocycles and Nutlin-3a outweighed the similarities that led to their initial selection for screening.
(In general: Immunoblotting shows a protein as a band on a membrane.)

Data set [2] deals with Par-4 secretion. Put plainly: Par-4 secretion, cells not specified. The data set is classed as cell-based.

Turning to `CN(C)c1ccc2cc(-c3cccc(F)c3)c(N)nc2c1` [Arylquin 2, 3-(3-fluorophenyl)-N^7,N^7-dimethylquinoline-2,7-diamine], the melting point is 147 to 148 °C. For `CN(C)c1ccc2cc(-c3ccccc3F)c(=O)[nH]c2c1` [Arylquin 4, 7-(dimethylamino)-3-(2-fluorophenyl)quinolin-2(1H)-one], the melting point was 247 to 248 °C.

As to `CN(C)c1ccc2cc(-c3ccccc3F)c(=S)[nH]c2c1` [Arylquin 5, 7-(dimethylamino)-3-(2-fluorophenyl)quinoline-2(1H)-thione], the melting point is 251 to 253 °C. In turn, `CN(C)c1ccc2cc(-c3ccccc3F)cnc2c1` [Arylquin 6, 3-(2-fluorophenyl)-N,N-dimethylquinolin-7-amine] gave a melting point of 142 to 144 °C. Moreover, in data set [1], the “level of Par-4 secretion, structure-activity comparison among analogs” value is “highest levels of Par-4 secretion”. `CN(C)c1ccc2cc(-c3ccccc3)c(N)nc2c1` [Arylquin 7, N^7,N^7-Dimethyl-3-phenylquinoline-2,7-diamine] came in with a melting point of 123 to 125 °C.

In turn, `Nc1nc2ccccc2cc1-c1ccccc1F` [Arylquin 8, 3-(2-fluorophenyl)quinolin-2-amine] showed a melting point of 152 to 153 °C. Besides, the “level of Par-4 secretion, structure-activity comparison among analogs” value in data set [1] is on record as “highest levels of Par-4 secretion”. For `CN(C)c1ccc2cc(-c3ccccc3F)c(SCC(=O)NCCOCCOCCNC(=O)CCCCC3SCC4NC(=O)NC43)nc2c1` (centres unmarked) [Biotinylated Arylquin 9, N-(2-(2-(2-(2-(7-(dimethylamino)-3-(2-fluorophenyl)quinolin-2-ylthio)acetamido)ethoxy)ethoxy)ethyl)-5-(2-oxohexahydro-1H-thieno[3,4-d]imidazol-4-yl)pentanamide], the Par-4 secretory properties entry in data set [2] is recorded as “retain Par-4 secretory properties”. On to `C[C@H]1CCC/C=C/[C@@H]2C[C@H](O)C[C@H]2[C@H](O)/C=C/C(=O)O1` [Brefeldin A, reference compound], for which the “effect on basal and Arylquin 1-inducible Par-4 secretion” value in data set [2] is “inhibited basal as well as Arylquin 1-inducible Par-4 secretion”. Take `COc1ccc(C2=N[C@@H](c3ccc(Cl)cc3)[C@@H](c3ccc(Cl)cc3)N2C(=O)N2CCNC(=O)C2)c(OC(C)C)c1` [Nutlin-3a, reference compound]: the Par-4 secretion result in data set [1] (MEF cells) is on record as “stimulated Par-4 secretion at micromolar levels”.

Usually melting point stands for the temperature, or range, at which the solid turns liquid.

These data come from patent publication US9873670B2, “Arylquinoline and analog compounds and use thereof to treat cancer” (UNIVERSITY OF KENTUCKY RESEARCH FOUNDATION, priority 2013, dated 2018).
